19 compounds from ChEMBL document CHEMBL3868600, “Antibacterial profiling of abietane-type diterpenoids” (Bioorg Med Chem, 2017) can be followed below.

≈ marks a conversion by molar mass, not a printed value.

As usually defined, the MIC90 is the lowest concentration that inhibits either 90% of growth or 90% of the strains tested, depending on the study. Higher therefore signals lower susceptibility. The IC50 is the concentration that gives 50% inhibition.

Assay [1] deals with Candida albicans. Briefly: Growth inhibition of Candida albicans ATCC 90028 at 50 uM after 48 hrs by broth microdilution method. The settings on record: ATCC 90028, 48 h, read-out: GI. In kind it is functional.
Assay [2] has as its system Escherichia coli. Briefly: Growth inhibition of Escherichia coli ATCC 25922 at 50 uM after 24 hrs by broth microdilution method. In kind it is functional. The settings on record: ATCC 25922, 24 h, read-out: GI. (In general: Dilution methods test growth across graded concentrations, often in twofold steps.)
Assay [3] has as its system Staphylococcus aureus. Briefly: Growth inhibition of Staphylococcus aureus ATCC 25923 at 50 uM after 24 hrs by broth microdilution method. The format is functional. The settings on record: ATCC 25923, 24 h, read-out: GI.
Assay [4] is described as follows: Antifungal activity against Rhodotorula mucilaginosa ATCC 66034 after 48 hrs by broth microdilution method. In kind it is functional.
Assay [5] has as its system Staphylococcus aureus. Briefly: Antibacterial activity against methicillin-resistant Staphylococcus aureus ATCC 4330 after 24 hrs by broth microdilution method. In kind it is functional. The settings on record: ATCC 4330, 24 h.
For assay [6], the system named is Staphylococcus epidermidis. Description: Antibacterial activity against Staphylococcus epidermidis ATCC 12228 after 24 hrs by broth microdilution method. The format is functional. To be noted: ATCC 12228, 24 h.
The subject of a further assay is Salmonella typhimurium. Description: Antibacterial activity against Salmonella typhimurium ATCC 13311 after 24 hrs by broth microdilution method. In kind it is functional, Salmonella enterica subsp. enterica serovar Typhimurium. The settings on record: Salmonella enterica, ATCC 13311, 24 h.
A further assay has as its system Cutibacterium acnes. Briefly: Antibacterial activity against Propionibacterium acnes ATCC 6919 after 24 hrs by broth microdilution method. The format is functional. To be noted: ATCC 6919, 24 h.
The test system of another assay is Streptococcus mitis. Briefly: Antibacterial activity against Streptococcus mitis NCIMB 13770 after 24 hrs by broth microdilution method. The settings on record: NCIMB 13770, 24 h. The format is functional.
For assay [7], the system named is Staphylococcus aureus. Description: Antibacterial activity against Staphylococcus aureus ATCC 25923 after 24 hrs by broth microdilution method. The settings on record: ATCC 25923, 24 h. The format is functional.
Assay [8] can be described thus: Antifungal activity against Cladosporium cladosporioides ATCC 16022 after 48 hrs by broth microdilution method. The format is functional.
Assay [9] relates to Staphylococcus aureus. Description: Ratio of MIC90 for Staphylococcus aureus ATCC 25923 to MIC90 for methicillin-resistant Staphylococcus aureus ATCC 4330. The format is functional.
Assay [10] deals with Candida albicans. Briefly: Antifungal activity against Candida albicans ATCC 90028 after 48 hrs by broth microdilution method. In kind it is functional. The settings on record: ATCC 90028, 48 h.
The test system of assay [11] is Escherichia coli. Description: Antibacterial activity against Escherichia coli ATCC 25922 after 24 hrs by broth microdilution method. In kind it is functional.

Regarding `COC(=O)[C@@H](NC(=O)[C@]1(C)CCC[C@@]2(C)[C@H]1CC=C1C=C(C(C)C)CC[C@@H]12)C(C)C`, the inhibition of growth at 50 µM in the assay with Candida albicans [1] came to 0%; in the assay with Escherichia coli [2], 6%; in the assay on Staphylococcus aureus [3], 6%.
For `COC(=O)[C@H](Cc1ccccc1)NC(=O)[C@]1(C)CCC[C@@]2(C)[C@H]1CC=C1C=C(C(C)C)CC[C@@H]12`, the inhibition of growth at 50 µM with Candida albicans [1] is -13%; in the assay on Escherichia coli [2], 6%; in the assay with Staphylococcus aureus [3], -1%.
Take `COC(=O)[C@H](CO)NC(=O)[C@]1(C)CCC[C@@]2(C)[C@H]1CC=C1C=C(C(C)C)CC[C@@H]12`: the inhibition of growth at 50 µM in the assay with Candida albicans [1] stood at 39%; with Escherichia coli [2], 9%; in the assay on Staphylococcus aureus [3], 76%. Moreover, the MIC90 was 31 µg/mL (≈ 76.8 µM) in [4]; 62 µg/mL (≈ 154 µM) in the assay with Staphylococcus aureus [5]; 16 µg/mL (≈ 39.6 µM) in assay [6]; more than 125 µg/mL in the assay on Salmonella typhimurium; more than 125 µg/mL in the assay on Cutibacterium acnes; more than 125 µg/mL in the assay with Streptococcus mitis. Moreover, the results for the MIC90 (with Staphylococcus aureus [7]; in assay [8]) were 61 µg/mL (≈ 151 µM) and more than 125 µg/mL, respectively. Moreover, the IC50 in the assay with Staphylococcus aureus [7] was in the range of 21 to 30 µg/mL (≈ 52 to 74.3 µM).
In the assay on Staphylococcus aureus [7], `COC(=O)[C@H](CO)NC(=O)[C@]1(C)CCC[C@]2(C)c3ccc(C(C)C)cc3CC[C@@H]12` registered an IC50 of 21 to 30 µg/mL (≈ 52.3 to 74.7 µM) and an MIC90 of more than 125 µg/mL.
For `OC(Cn1cncn1)(Cn1cncn1)c1ccc(F)cc1F`, the MIC90 in assay [4] was determined as 0.5 µg/mL (≈ 1.63 µM); in [8], 520 µg/mL (≈ 1700 µM).
As to `COC(=O)[C@@H](CO)NC(=O)[C@]1(C)CCC[C@]2(C)c3ccc(C(C)C)cc3CC[C@@H]12`, the MIC90 in [4] amounted to 31 µg/mL (≈ 77.2 µM); with Staphylococcus aureus [5], 8 µg/mL (≈ 19.9 µM); in assay [6], 8 µg/mL (≈ 19.9 µM); in the assay on Salmonella typhimurium, 31 µg/mL (≈ 77.2 µM); against Cutibacterium acnes, 16 µg/mL (≈ 39.8 µM); against Streptococcus mitis, 8 µg/mL (≈ 19.9 µM). Besides, the MIC90 in the assay with Staphylococcus aureus [7] was 60 µg/mL (≈ 149 µM); in assay [8], more than 125 µg/mL. In addition, the Ratio in the assay on Staphylococcus aureus [9] came to 7.5. The compound further yielded an IC50 in the assay with Staphylococcus aureus [7] of 21 to 30 µg/mL (≈ 52.3 to 74.7 µM).
Consider `CC1(C)S[C@@H]2[C@H](NC(=O)[C@H](N)c3ccccc3)C(=O)N2[C@H]1C(=O)O` [AMPICILLIN], for which the MIC90 in assay [6] came to 2 µg/mL (≈ 5.72 µM); against Salmonella typhimurium, 0.5 µg/mL (≈ 1.43 µM); with Cutibacterium acnes, 0.125 µg/mL (≈ 0.358 µM); in the assay with Streptococcus mitis, 2 µg/mL (≈ 5.72 µM).
Take `CC[C@H]1OC(=O)[C@H](C)[C@@H](O[C@H]2C[C@@](C)(OC)[C@@H](O)[C@H](C)O2)[C@H](C)[C@@H](O[C@@H]2O[C@H](C)C[C@H](N(C)C)[C@H]2O)[C@](C)(OC)C[C@@H](C)C(=O)[C@H](C)[C@@H](O)[C@]1(C)O` [CLARITHROMYCIN]: the MIC90 with Cutibacterium acnes was 0.5 µg/mL (≈ 0.668 µM); in the assay with Streptococcus mitis it was 0.25 µg/mL (≈ 0.334 µM).
In the assay on Candida albicans [10], `C[C@@H]1[C@H](O)[C@@H](C)/C=C/C=C/C=C/C=C/C=C/C=C/C=C/[C@H](O[C@@H]2O[C@H](C)[C@@H](O)[C@H](N)[C@@H]2O)C[C@@H]2O[C@](O)(C[C@@H](O)C[C@@H](O)[C@H](O)CC[C@@H](O)C[C@@H](O)CC(=O)O[C@H]1C)C[C@H](O)[C@H]2C(=O)O` [AMPHOTERICIN B] had an MIC90 of 16 µg/mL (≈ 17.3 µM).
On to `O=C(N[C@H](CO)[C@H](O)c1ccc([N+](=O)[O-])cc1)C(Cl)Cl` [CHLORAMPHENICOL], for which the MIC90 in assay [6] turned out to be 8 µg/mL (≈ 24.8 µM); against Salmonella typhimurium, 8 µg/mL (≈ 24.8 µM); in the assay on Cutibacterium acnes, 4 µg/mL (≈ 12.4 µM); in the assay with Streptococcus mitis it was 4 µg/mL (≈ 12.4 µM).
With `COC(=O)[C@H](CC1CCCCC1)NC(=O)[C@]1(C)CCC[C@@]2(C)[C@H]1CC=C1C=C(C(C)C)CC[C@@H]12`, the inhibition of growth at 50 µM with Candida albicans [1] was -35%; in the assay with Escherichia coli [2], 3%; with Staphylococcus aureus [3], -8%.
In the case of `CC[C@H](NC(=O)[C@]1(C)CCC[C@@]2(C)[C@H]1CC=C1C=C(C(C)C)CC[C@@H]12)C(=O)OC`, the values for the inhibition of growth at 50 µM in the assay with Candida albicans [1], in the assay with Escherichia coli [2] and in the assay with Staphylococcus aureus [3] were 23%, 11% and -12%, respectively.
With `CC(C)C1=CC2=CC[C@@H]3[C@](C)(CCC[C@@]3(C)C(=O)O)[C@H]2CC1` [ABIETIC ACID], the inhibition of growth at 50 µM was -53% with Candida albicans [1], 0% in the assay with Escherichia coli [2] and 44 to 45% in the assay on Staphylococcus aureus [3]. For the same compound, the MIC90 in [4] is 31 µg/mL (≈ 102 µM); with Staphylococcus aureus [5], 31 µg/mL (≈ 102 µM); in assay [6], 8 µg/mL (≈ 26.4 µM); in the assay on Salmonella typhimurium, 31 µg/mL (≈ 102 µM); in the assay on Cutibacterium acnes, 4 µg/mL (≈ 13.2 µM); with Streptococcus mitis, 16 µg/mL (≈ 52.9 µM). The MIC90 (with Staphylococcus aureus [7]; in assay [8]) was 63 µg/mL (≈ 208 µM) in each case.
Consider `COC(=O)CNC(=O)[C@]1(C)CCC[C@@]2(C)[C@H]1CC=C1C=C(C(C)C)CC[C@@H]12`, for which the inhibition of growth at 50 µM with Candida albicans [1] amounted to 20%; in the assay with Escherichia coli [2] it was 8%; in the assay on Staphylococcus aureus [3], 13%.
As to NYSTATIN, the MIC90 came to 0.125 µg/mL in assay [4] and 64 µg/mL in assay [8].
GENTAMICIN had an MIC90 against Escherichia coli [11] of 2 µg/mL.
For the compound `CN(C)[C@@H]1C(O)=C(C(N)=O)C(=O)[C@@]2(O)C(O)=C3C(=O)c4c(O)cccc4[C@@](C)(O)[C@H]3C[C@@H]12` [TETRACYCLINE], the MIC90 came out at 1 µg/mL (≈ 2.25 µM) in [6], 16 µg/mL (≈ 36 µM) against Salmonella typhimurium, 2 µg/mL (≈ 4.5 µM) in the assay on Cutibacterium acnes and 1 µg/mL (≈ 2.25 µM) in the assay on Streptococcus mitis.
Regarding `COC(=O)[C@H](CC(C)C)NC(=O)[C@]1(C)CCC[C@@]2(C)[C@H]1CC=C1C=C(C(C)C)CC[C@@H]12`, the values for the inhibition of growth at 50 µM in the assay on Candida albicans [1], in the assay with Escherichia coli [2] and in the assay on Staphylococcus aureus [3] were -8%, 6% and -9%, respectively.
Compound `O=C(O)c1cn(C2CC2)c2cc(N3CCNCC3)c(F)cc2c1=O` [CIPROFLOXACIN] came in with an MIC90 in the assay on Staphylococcus aureus [7] of 1 µg/mL (≈ 3.02 µM).
